Test results taken from the NIST ThermoML archive (doi:10.1016/j.fluid.2011.07.002).
Numbers after ± are expanded uncertainties.

Details: Liquid, Closed cell (Static) method

vapor or sublimation pressure (278.15 K) [kPa]	vapor or sublimation pressure (283.15 K) [kPa]	vapor or sublimation pressure (288.15 K) [kPa]	vapor or sublimation pressure (293.15 K) [kPa]	vapor or sublimation pressure (298.15 K) [kPa]	vapor or sublimation pressure (303.15 K) [kPa]	vapor or sublimation pressure (308.15 K) [kPa]	vapor or sublimation pressure (313.15 K) [kPa]	vapor or sublimation pressure (318.15 K) [kPa]	vapor or sublimation pressure (323.15 K) [kPa]	Structure (SMILES)
2.264 ± 0.021	3.147 ± 0.024	4.327 ± 0.032	5.876 ± 0.04	7.798 ± 0.051	10.41 ± 0.066	13.71 ± 0.084	17.9 ± 0.1	23.06 ± 0.13	29.46 ± 0.15	CCO [ethanol]
0.071 ± 0.002	0.093 ± 0.002	0.13 ± 0.002	0.178 ± 0.003	0.253 ± 0.003	0.346 ± 0.004	0.477 ± 0.006	0.627 ± 0.007	0.828 ± 0.009	1.101 ± 0.011	CC12CCC(CC1)C(C)(C)O2 [1,3,3-trimethyl-2-oxabicyclo[2.2.2]octane]
